In patent publication US5621010A, “Urea derivatives and their use as ACAT inhibitors” (Nisshin Flour Milling Co., Ltd., priority 1993, dated 1997):

Key:
[1] = Cholesterol-lowering activity in hypercholesteremic rats; type: in vivo, Sprague-Dawley male rats; settings: 30 mg/kg oral, in 0.5% methylcellulose; plasma cholesterol prior to and 5 hrs after administration
Method: Sprague-Dawley male rats were given a powdery feed containing 1% cholesterol and 0.5% cholic acid in an amount of 15 g per day per animal for 3 days to produce hypercholesteremic rats. Four days later, a compound suspended in 0.5% methylcellulose was administered orally at a dose of 30 mg/kg. Blood was drawn prior to and 5 hrs after the administration of the compound, for which the plasma cholesterol level was measured using a commercially available assay kit (Cholesterol E Test Wako, Wako Junyaku K.K.).

[2] = test system: ACAT (liver microsome fractions of male rabbits); assay: ACAT inhibitory activity: formation of labelled cholesteryl esters from [1-14C]oleoyl-CoA and endogenous cholesterol; type: biochemical, rabbit; settings: compound added at 10^-7 M
Method: The enzyme preparation, ACAT was prepared from liver microsme fractions of male rabbits according to the method of E. E. Largis et al. (Journal of Lipid Research, Vol. 30, pages 681-690, 1989). The activity was calculated by assaying the amount of the labelled cholesteryl esters formed from [1-^14 C]oleoyl-CoA and endogenous cholesterol according to the method of Kazuichi NATORI et al. (Japan J. Pharmacol., Vol. 42, pages 517-523, 1986).
The result is shown in Table 1, in which percent inhibition of the formation of the labelled cholesteryl esters with a compound added at 10^-7 M is indicated as index for the ACAT inhibitory activity.

Human LDL = assay: Antioxidative activity: inhibition of MDA formation from LDL incubated with cupric sulfate; type: biochemical; settings: compound 10^-5 M; cupric sulfate 5×10^-6 M; 5 hrs; compared with control
Method: Human LDL was incubated in the presence of cupric sulfate (5×10^-6 M) and in the presence or absence of a compound (10^-5 M) for 5 hrs. After the incubation, the peroxidation of low-density lipoproteins (LDL) is evaluated by the formation of malondialdehyde (MDA), which is a sort of lipid peroxides according to the method of Simon J. T. Mao et al. (J. Med. Chem., Vol. 34, pages 298-302, 1991). Activity of the compound is shown by percent inhibition of the MDA formation as compared with control.

SMILES	Percent Reduction of Cholesterol [1]	ACAT Inhibition [2]	Antioxidant Activity (percent inhibition of the MDA formation) (Human LDL)
CCCCCCCN(C)C(=O)Nc1ccccc1/C=C/c1cc(C(C)(C)C)c(O)c(C(C)(C)C)c1 [Example 105, N-[2-(3,5-di-tert-butyl-4-hydroxystyryl)phenyl]-N'-methyl-N'-heptylurea]	45.9%		
CC(C)(C)c1cc(CCc2ccccc2NC(=O)N2CCCC3CCCCC32)cc(C(C)(C)C)c1O (centres unmarked) [Example 130, 1-[N-[2-(3,5-di-tert-butyl-4-hydroxyphenethyl)phenyl]carbamoyl]decahydroquinoline]	71.5%	99%	95%
CC(C)(C)c1cc(CCc2ccccc2NC(=O)NC2CCN(Cc3ccc(F)cc3)CC2)cc(C(C)(C)C)c1O [Example 83, N-[2-(3,5-di-tert-butyl-4-hydroxyphenethyl)phenyl]-N'-[1-(4-fluorobenzyl)-4-piperidyl]urea]	44.6%	96%	96%
CC(C)(C)c1cc(CCc2cc(F)cc(F)c2NC(=O)NC2CCN(Cc3ccccc3)CC2)cc(C(C)(C)C)c1O [Example 108, N-[2-(3,5-di-tert-butyl-4-hydroxyphenethyl)-4,6-difluorophenyl]-N'-(1-benzyl-4-piperidyl)urea]	71.8%	97%	93%
CC(C)(C)c1cc(CCc2ccccc2NC(=O)NC2CCCCCCC2)cc(C(C)(C)C)c1O [Example 18, N-[2-(3,5-di-tert-butyl-4-hydroxyphenethyl)phenyl]-N'-cyclooctylurea]		97%	97%
CCCCCCCNC(=O)Nc1ccccc1CCc1cc(C(C)(C)C)c(O)c(C(C)(C)C)c1 [Example 12, N-[2-(3,5-di-tert-butyl-4-hydroxyphenethyl)phenyl]-N'-heptylurea]		91%	94%
CC(C)(C)c1cc(CCc2ccccc2NC(=O)NC2CCC(C(C)(C)C)CC2)cc(C(C)(C)C)c1O (centres unmarked) [Example 52, N-[2-(3,5-di-tert-butyl-4-hydroxyphenethyl)phenyl]-N'-(4-tert-butylcyclohexyl)urea]		97%	94%
CC(C)(C)c1cc(CCc2ccccc2NC(=O)N2CCc3ccccc3C2)cc(C(C)(C)C)c1O [Example 117, 2-[N-[2-(3,5-di-tert-butyl-4-hydroxyphenethyl)phenyl]carbamoyl]-1,2,3,4-tetrahydroisoquinoline]		91%	97%
CN(C(=O)Nc1ccccc1CCc1cc(C(C)(C)C)c(O)c(C(C)(C)C)c1)C1CCN(Cc2ccccc2)CC1 [Example 92, N-[2-(3,5-di-tert-butyl-4-hydroxyphenethyl)phenyl]-N'-(1-benzyl-4-piperidyl)-N'-methylurea]	79.9%	99%	96%
CC(C)(C)c1cc(CCc2ccccc2NC(=O)NCC2(c3ccc4c(c3)OCO4)CCCC2)cc(C(C)(C)C)c1O [Example 76, N-[2-(3,5-di-tert-butyl-4-hydroxyphenethyl)phenyl]-N'-[[1-(3,4-methylenedioxyphenyl)cyclopentyl]methyl]urea]		98%	96%
CC(C)(C)c1cc(CCc2ccccc2NC(=O)NC2CCC(OCc3ccccc3)CC2)cc(C(C)(C)C)c1O (centres unmarked) [Example 57]		89%	95%
CC(C)(C)c1cc(CCc2ccccc2NC(=O)NC(c2ccccc2)c2ccccc2)cc(C(C)(C)C)c1O [Example 29, N-[2-(3,5-di-tert-butyl-4-hydroxyphenethyl)phenyl]-N'-diphenylmethylurea]		99%	95%
CCOC(=O)[C@@H](NC(=O)Nc1ccccc1CCc1cc(C(C)(C)C)c(O)c(C(C)(C)C)c1)c1ccccc1 [Example 69, (S)-N-[2-(3,5-di-tert-butyl-4-hydroxyphenethyl)phenyl]-N'-(α-ethoxycarbonyl)benzylurea]		96%	95%
CCCCCCOc1ccc(NC(=O)Nc2ccccc2CCc2cc(C(C)(C)C)c(O)c(C(C)(C)C)c2)cc1 [Example 1, N-[2-(3,5-di-tert-butyl-4-hydroxyphenethyl)phenyl]-N'-(4-hexyloxyphenyl)urea]		83%	94%
CC(C)(C)c1cc(CCc2ccccc2NC(=O)N2CCN(c3ccccc3)CC2)cc(C(C)(C)C)c1O [Example 124, 1-[N-[2-(3,5-di-tert-butyl-4-hydroxyphenethyl)phenyl]carbamoyl]-4-phenylpiperazine]		81%	95%
CC(C)(C)CN1CCC(NC(=O)Nc2ccccc2CCc2cc(C(C)(C)C)c(O)c(C(C)(C)C)c2)CC1 [Example 97, N-[2-(3,5-di-tert-butyl-4-hydroxyphenethyl)phenyl]-N'-[1-(2,2-dimethylpropyl)-4-piperidyl]urea]		89%	96%
CN(C(=O)Nc1ccccc1CCc1cc(C(C)(C)C)c(O)c(C(C)(C)C)c1)C1CCCN(Cc2ccccc2)C1 (centres unmarked) [Example 99, N-[2-(3,5-di-tert-butyl-4-hydroxyphenethyl)phenyl]-N'-(1-benzyl-3-piperidyl)-N'-methylurea]		100%	95%
CC(C)(C)c1cc(CCc2ccccc2NC(=O)NC2CCN(Cc3ccccc3)CC2)cc(C(C)(C)C)c1O [Example 35, N-[2-(3,5-di-tert-butyl-4-hydroxyphenethyl)phenyl]-N'-(1-benzyl-4-piperidyl)urea]	48.4%	82%	94%
CCOCCCNC(=O)Nc1ccccc1CCc1cc(C(C)(C)C)c(O)c(C(C)(C)C)c1 [Example 15, N-[2-(3,5-di-tert-butyl-4-hydroxyphenethyl)phenyl]-N'-(3-ethoxypropyl)urea]		76%	99%
CN(Cc1c2ccccc2cc2ccccc12)C(=O)Nc1ccccc1CCc1cc(C(C)(C)C)c(O)c(C(C)(C)C)c1 [Example 44, N-[2-(3,5-di-tert-butyl-4-hydroxyphenethyl)phenyl]-N'-(9-anthryl)methyl-N'-methylurea]		90%	94%
CC(C)(C)c1cc(CCc2ccccc2NC(=O)N2CCC(Cc3ccccc3)CC2)cc(C(C)(C)C)c1O [Example 115, 4-Benzyl-1-[N-[2-(3,5-di-tert-butyl-4-hydroxyphenethyl)phenyl]carbamoyl]piperidine]		87%	98%
CC(C)(C)c1cc(CCc2ccccc2NC(=O)N(Cc2ccccc2)Cc2ccccc2)cc(C(C)(C)C)c1O [Example 42, N-[2-(3,5-di-tert-butyl-4-hydroxyphenethyl)phenyl]-N',N'-dibenzylurea]		95%	97%
CC(C)(C)c1cc(CCc2ccccc2NC(=O)NCCc2ccccc2)cc(C(C)(C)C)c1O [Example 5, N-[2-(3,5-di-tert-butyl-4-hydroxyphenethyl)phenyl]-N'-phenethylurea]		89%	100%
CC(C)(C)c1cc(CCc2ccccc2NC(=O)NC2CCN(Cc3ccc(C(F)(F)F)cc3C(F)(F)F)CC2)cc(C(C)(C)C)c1O [Example 85, N-[2-(3,5-di-tert-butyl-4-hydroxyphenethyl)phenyl]-N'-[1[-2,4-bis(trifluoromethyl)benzyl]-4-piperidyl]urea]		97%	94%
CC(C)(C)c1cc(CCc2ccccc2NC(=O)NC2CCCCC2)cc(C(C)(C)C)c1O [Example 17, N-[2-(3,5-di-tert-butyl-4-hydroxyphenethyl)phenyl]-N'-cyclohexylurea]		92%	99%
CC(C)(C)c1cc(CCc2ccccc2NC(=O)NC(C)(C)c2ccc(Cl)c(Cl)c2)cc(C(C)(C)C)c1O [Example 74, N-[2-(3,5-di-tert-butyl-4-hydroxyphenethyl)phenyl]-N'-[2-(3,4-dichlorophenyl)-2-propyl]urea]		96%	95%
